# In ChEMBL document CHEMBL4706534, “1,2,3-Triazole-containing hybrids with potential antibacterial activity against methicillin-resistant Staphylococcus aureus (MRSA)” (Eur J Med Chem, 2020):
# What was measured:
# Staphylococcus aureus [1] = assay: Antibacterial activity against Staphylococcus aureus C463 incubated for 18 hrs by CLSI-based two fold agar dilution method; format: functional
# Enterococcus faecium = assay: Antibacterial activity against Enterococcus faecium; format: functional
# Staphylococcus aureus [2] = assay: Antibacterial activity against methicillin-resistant Staphylococcus aureus; format: functional
# Enterobacter cloacae = assay: Antibacterial activity against Enterobacter cloacae; format: functional
# Proteus vulgaris = assay: Antibacterial activity against Proteus vulgaris; format: functional
# Klebsiella aerogenes = assay: Antibacterial activity against Enterobacter aerogenes; format: functional
# [3] = Cytotoxicity against CHO cells; format: cell-based, Cricetulus griseus; conditions: chinese hamster
# Providencia rettgeri = assay: Antibacterial activity against Providencia rettgeri; format: functional
# [4] = test system: Staphylococcus epidermidis; assay: Antibacterial activity against methicillin-sensitive Staphylococcus epidermidis; format: functional
# Enterococcus faecalis = assay: Antibacterial activity against Enterococcus faecalis; format: functional
# Escherichia coli = assay: Antibacterial activity against Escherichia coli; format: functional
# Staphylococcus aureus [5] = assay: Antibacterial activity against methicillin-sensitive Staphylococcus aureus; format: functional
# Klebsiella pneumoniae = assay: Antibacterial activity against Klebsiella pneumoniae; format: functional
# Staphylococcus aureus [6] = assay: Antibacterial activity against Staphylococcus aureus ATCC 29213; format: functional, organism-based
# Staphylococcus aureus [7] = assay: Antibacterial activity against Methicillin-resistant Staphylococcus aureus ATCC 33591; format: functional, organism-based
# [8] = test system: Staphylococcus epidermidis; assay: Antibacterial activity against methicillin-resistant Staphylococcus epidermidis; format: functional
# Staphylococcus aureus [9] = assay: Antibacterial activity against Methicillin-resistant Staphylococcus aureus ATCC 405055 incubated for 18 to 24 hrs by CLSI-based microbroth dilution method; format: functional; conditions: time 18-24 hrs
# Staphylococcus aureus [10] = assay: Antibacterial activity against Methicillin-resistant Staphylococcus aureus ATCC 60202 incubated for 18 to 24 hrs by CLSI-based microbroth dilution method; format: functional; conditions: time 18-24 hrs
# Staphylococcus aureus [11] = assay: Antibacterial activity against Methicillin-resistant Staphylococcus aureus ATCC 52056 incubated for 18 to 24 hrs by CLSI-based microbroth dilution method; format: functional; conditions: time 18-24 hrs
# Staphylococcus aureus [12] = assay: Antibacterial activity against Methicillin-resistant Staphylococcus aureus ATCC 51033 incubated for 18 to 24 hrs by CLSI-based microbroth dilution method; format: functional; conditions: time 18-24 hrs
# Staphylococcus aureus [13] = assay: Antibacterial activity against Methicillin-resistant Staphylococcus aureus ATCC 510019 incubated for 18 to 24 hrs by CLSI-based microbroth dilution method; format: functional; conditions: time 18-24 hrs
# Staphylococcus aureus [14] = assay: Antibacterial activity against Methicillin-resistant Staphylococcus aureus ATCC 51345 incubated for 18 to 24 hrs by CLSI-based microbroth dilution method; format: functional; conditions: time 18-24 hrs
# Staphylococcus aureus [15] = assay: Antibacterial activity against Methicillin-resistant Staphylococcus aureus ATCC 43300 incubated for 18 to 24 hrs by CLSI-based microbroth dilution method; format: functional; conditions: time 18-24 hrs
# Staphylococcus aureus [16] = assay: Antibacterial activity against Methicillin-resistant Staphylococcus aureus ATCC 52351-2 incubated for 18 to 24 hrs by CLSI-based microbroth dilution method; format: functional; conditions: time 18-24 hrs
# Staphylococcus aureus [17] = assay: Antibacterial activity against Methicillin-resistant Staphylococcus aureus ATCC 51599-2 incubated for 18 to 24 hrs by CLSI-based microbroth dilution method; format: functional; conditions: time 18-24 hrs
# Staphylococcus aureus [18] = assay: Antibacterial activity against Methicillin-resistant Staphylococcus aureus ATCC 33591 incubated for 20 hrs by broth two-fold dilution method; format: functional
# Staphylococcus aureus [19] = assay: Bactericidal activity against methicillin-resistant Staphylococcus aureus ATCC 33591 measured after 20 hrs; format: functional
# Staphylococcus aureus [20] = assay: Resistance index, ratio of MIC for antibacterial activity against Staphylococcus aureus ATCC 43300 incubated for 18 hrs to MIC for antibacterial activity against Staphylococcus aureus ATCC 25923 incubated for 18 hrs; format: functional
# Staphylococcus aureus [21] = assay: Antibacterial activity against methicillin-resistant Staphylococcus aureus ATCC 43300 incubated for 18 hrs; format: functional
# Staphylococcus aureus [22] = assay: Antibacterial activity against Staphylococcus aureus NRS119 incubated for 18 hrs by CLSI-based two fold agar dilution method; format: functional
# Staphylococcus aureus [23] = assay: Antibacterial activity against Staphylococcus aureus NRS127 incubated for 18 hrs by CLSI-based two fold agar dilution method; format: functional
# Staphylococcus aureus [24] = assay: Antibacterial activity against Staphylococcus aureus NRS121 incubated for 18 hrs by CLSI-based two fold agar dilution method; format: functional
# Staphylococcus aureus [25] = assay: Antibacterial activity against Staphylococcus aureus NRS271 incubated for 18 hrs by CLSI-based two fold agar dilution method; format: functional
smiles,measurement,setting,value
O=C1CC2CN(c3ccc(N4C[C@H](Cn5ccnn5)OC4=O)cc3F)CC2C1 (stereo partly drawn),MIC,Staphylococcus aureus [1],3.12 µg/mL
COc1c(N2C[C@@H]3CCCN(C(=O)Cn4cc(CN5C(=O)C(=O)c6ccccc65)nn4)[C@@H]3C2)c(F)cc2c(=O)c(C(=O)O)cn(C3CC3)c12,MIC,Enterococcus faecium,≤ 0.03 µg/mL
same,MIC,Staphylococcus aureus [2],1 µg/mL
same,MIC,Enterobacter cloacae,≤ 0.03 µg/mL
same,MIC,Proteus vulgaris,≤ 0.03 µg/mL
same,MIC,Klebsiella aerogenes,≤ 0.03 µg/mL
same,CC50,[3],64 µg/mL
same,MIC,Providencia rettgeri,≤ 0.03 µg/mL
same,MIC,[4],≤ 0.03 µg/mL
same,MIC,Enterococcus faecalis,≤ 0.03 µg/mL
same,MIC,Escherichia coli,≤ 0.03 µg/mL
same,MIC,Staphylococcus aureus [5],≤ 0.03 µg/mL
same,MIC,Klebsiella pneumoniae,≤ 0.03 µg/mL
COc1c(Cn2cc(-c3nnc(-c4ccccc4)o3)nn2)c(OC)c(OC)c(OC)c1OC,IC50,Staphylococcus aureus [6],7 µg/mL
same,IC50,Staphylococcus aureus [7],6.4 µg/mL
CC[C@@H](C(=O)[C@@H](C)[C@@H](O)[C@H](C)[C@@H]1O[C@@H]([C@@H](CC)C(=O)NCc2cn([C@H]3C[C@H](n4cc(F)c(=O)[nH]c4=O)O[C@@H]3CO)nn2)CC[C@@H]1C)[C@H]1O[C@]2(C=C[C@@H](O)[C@]3(CC[C@@](C)([C@H]4CC[C@](O)(CC)[C@H](C)O4)O3)O2)[C@H](C)C[C@@H]1C,MIC,Staphylococcus aureus [2],32 µg/mL
same,MIC,[8],32 µg/mL
Cc1nc(C)c(COc2ccc(N3C[C@H](Cn4ccnn4)OC3=O)cc2)nc1C,MIC,Staphylococcus aureus [9],4 µg/mL
same,MIC,Staphylococcus aureus [10],4 µg/mL
same,MIC,Staphylococcus aureus [11],4 µg/mL
same,MIC,Staphylococcus aureus [12],4 µg/mL
same,MIC,Staphylococcus aureus [13],4 µg/mL
same,MIC,Staphylococcus aureus [14],4 µg/mL
same,MIC,Staphylococcus aureus [15],4 µg/mL
same,MIC,Staphylococcus aureus [16],4 µg/mL
same,MIC,Staphylococcus aureus [17],4 µg/mL
COc1cc(/C=C/c2ccc(OCc3cn(-c4ccc(C(=O)O)cc4)nn3)cc2)cc(OC)c1,MIC,Staphylococcus aureus [18],1.2 µg/mL
same,MBC,Staphylococcus aureus [19],19.5 µg/mL
NC[C@H]1O[C@@H](O[C@@H](Cn2cc(CCCCCCCCCCOc3ccc(C(=O)c4ccccc4)cc3)nn2)[C@H]2O[C@@H](n3ccc(=O)[nH]c3=O)[C@H](O)[C@@H]2O)[C@H](O)[C@@H]1O.O=C(O)C(F)(F)F,Ratio,Staphylococcus aureus [20],1
same,MIC,Staphylococcus aureus [21],8 µg/mL
CO/N=C1\C(=O)N(Cc2cn(CC(=O)N3CCC[C@H]4CN(c5c(F)cc6c(=O)c(C(=O)O)cn(C7CC7)c6c5OC)C[C@H]43)nn2)c2ccc(C)cc21,MIC,Enterococcus faecium,≤ 0.03 µg/mL
same,MIC,Staphylococcus aureus [2],1 µg/mL
same,MIC,Enterobacter cloacae,≤ 0.03 µg/mL
same,MIC,Proteus vulgaris,≤ 0.03 µg/mL
same,MIC,Klebsiella aerogenes,≤ 0.03 µg/mL
same,CC50,[3],32 µg/mL
same,MIC,Providencia rettgeri,≤ 0.03 µg/mL
same,MIC,[4],≤ 0.03 µg/mL
same,MIC,Enterococcus faecalis,≤ 0.03 µg/mL
same,MIC,Escherichia coli,≤ 0.03 µg/mL
same,MIC,Staphylococcus aureus [5],≤ 0.03 µg/mL
same,MIC,Klebsiella pneumoniae,≤ 0.03 µg/mL
CC(=O)NC[C@H]1CN(c2ccc(N3C[C@H]4CC(n5ccnn5)C[C@H]4C3)c(F)c2)C(=O)O1 (stereo partly drawn),MIC,Staphylococcus aureus [22],16 µg/mL
same,MIC,Staphylococcus aureus [23],16 µg/mL
same,MIC,Staphylococcus aureus [24],16 µg/mL
same,MIC,Staphylococcus aureus [25],16 µg/mL
NC[C@H]1O[C@@H](O[C@@H](Cc2cn(CCCCCCCCCCOc3ccc(C(=O)c4ccccc4)cc3)nn2)[C@H]2O[C@@H](n3ccc(=O)[nH]c3=O)[C@H](O)[C@@H]2O)[C@H](O)[C@@H]1O.O=C(O)C(F)(F)F,Ratio,Staphylococcus aureus [20],0.5
same,MIC,Staphylococcus aureus [21],8 µg/mL
